Experiment: molar heat capacity at constant pressure
Settings: 101.33 kPa, Crystal

OC[C@@H](O)[C@@H](O)[C@H](O)[C@H](O)CO [D-mannitol]
molar heat capacity at constant pressure [J/K/mol]
Settings	Small sample (50 mg) DSC	relaxation calorimetry
1 K	–	0.001199
1.923 K	–	0.006707
2 K	–	0.007583
2.139 K	–	0.009192
2.373 K	–	0.01256
2.634 K	–	0.01689
2.928 K	–	0.02301
3 K	–	0.02469
3.249 K	–	0.03152
3.602 K	–	0.04303
3.997 K	–	0.05809
4 K	–	0.05872
4.435 K	–	0.07904
4.92 K	–	0.1115
5 K	–	0.1167
5.459 K	–	0.1535
6 K	–	0.2067
6.057 K	–	0.2121
6.719 K	–	0.2951
7 K	–	0.3376
7.454 K	–	0.4159
8 K	–	0.5187
8.269 K	–	0.5829
9 K	–	0.7614
9.171 K	–	0.8041
10 K	–	1.071
10.2 K	–	1.131
11.29 K	–	1.565
12.52 K	–	2.163
13.89 K	–	2.945
15 K	–	3.67
15.42 K	–	3.976
17.11 K	–	5.278
18.99 K	–	6.927
20 K	–	7.832
21.08 K	–	8.9
23.4 K	–	11.29
25 K	–	13.01
25.98 K	–	14.06
28.84 K	–	17.28
30 K	–	18.66
32.02 K	–	20.91
35 K	–	24.4
35.55 K	–	25.01
39.45 K	–	29.53
40 K	–	30.07
43.79 K	–	34.41
45 K	–	35.64
48.59 K	–	39.53
50 K	–	41.11
53.92 K	–	45.29
55 K	–	46.48
59.84 K	–	51.45
60 K	–	51.67
65 K	–	56.63
66.4 K	–	58.03
70 K	–	61.48
73.71 K	–	64.84
75 K	–	66.19
80 K	–	70.77
81.8 K	–	72.99
85 K	–	75.22
90 K	–	79.54
90.8 K	–	80.09
95 K	–	83.75
100 K	–	87.87
100.74 K	–	87.67
110 K	–	95.83
110.88 K	–	96.15
120 K	–	103.5
120.83 K	–	104.57
130 K	–	110.93
130.91 K	–	112.04
140 K	–	118.19
140.97 K	–	119.24
150 K	–	125.32
151.12 K	–	126.15
160 K	–	132.36
161.2 K	–	133.18
170 K	–	139.33
171.28 K	–	140.05
180 K	–	146.27
181.37 K	–	147.35
188.15 K	143.51	–
189.15 K	144.52	–
190 K	–	153.2
190.15 K	145.73	–
191.15 K	146.73	–
191.44 K	–	154.23
192.15 K	147.51	–
193.15 K	148.54	–
194.15 K	149.99	–
195.15 K	151.06	–
196.15 K	152.24	–
197.15 K	153.48	–
198.15 K	154.54	–
199.15 K	155.53	–
200 K	–	160.12
200.15 K	156.46	–
201.15 K	157.4	–
201.56 K	–	160.73
202.15 K	158.14	–
203.15 K	158.99	–
204.15 K	159.96	–
205.15 K	160.76	–
206.15 K	161.64	–
207.15 K	162.47	–
208.15 K	163.24	–
209.15 K	163.78	–
210 K	–	167.07
210.15 K	164.68	–
211.15 K	165.46	–
211.67 K	–	167.61
212.15 K	166.24	–
213.15 K	167.09	–
214.15 K	167.92	–
215.15 K	168.49	–
216.15 K	169.55	–
217.15 K	170.24	–
218.15 K	170.94	–
219.15 K	171.88	–
220 K	–	174.05
220.15 K	172.81	–
221.15 K	173.38	–
221.78 K	–	175.44
222.15 K	174.15	–
223.15 K	174.98	–
224.15 K	175.72	–
225.15 K	176.52	–
226.15 K	177.3	–
227.15 K	177.96	–
228.15 K	178.66	–
229.15 K	179.32	–
230 K	–	181.07
230.15 K	179.98	–
231.15 K	180.68	–
231.88 K	–	182.4
232.15 K	181.3	–
233.15 K	182.34	–
234.15 K	182.94	–
235.15 K	183.75	–
236.15 K	184.67	–
237.15 K	185.22	–
238.15 K	186	–
239.15 K	186.79	–
240 K	–	188.14
240.15 K	187.46	–
241.15 K	188.04	–
241.89 K	–	189.63
242.15 K	188.69	–
243.15 K	189.39	–
244.15 K	190.16	–
245.15 K	190.77	–
246.15 K	191.37	–
247.15 K	192.19	–
248.15 K	192.92	–
249.15 K	193.73	–
250 K	–	195.26
250.15 K	194.6	–
251.15 K	195.14	–
252.03 K	–	197.13
252.15 K	195.91	–
253.15 K	196.71	–
254.15 K	197.56	–
255.15 K	198.46	–
256.15 K	199.17	–
257.15 K	199.9	–
258.15 K	200.87	–
259.15 K	201.58	–
260 K	–	202.45
260.15 K	202.15	–
261.15 K	203.09	–
262.09 K	–	203.85
262.15 K	203.84	–
263.15 K	204.4	–
264.15 K	205.1	–
265.15 K	205.89	–
266.15 K	206.4	–
267.15 K	207.11	–
268.15 K	207.89	–
269.15 K	208.64	–
270 K	–	209.71
270.15 K	209.5	–
271.15 K	210.37	–
272.12 K	–	211.38
272.15 K	211.22	–
273.15 K	211.63	212.01
274.15 K	212.27	–
275.15 K	213.11	–
276.15 K	213.85	–
277.15 K	214.68	–
278.15 K	215.33	–
279.15 K	216.09	–
280 K	–	217.04
280.15 K	216.75	–
281.15 K	217.54	–
282.15 K	218.34	–
282.18 K	–	219
283.15 K	219.11	–
284.15 K	219.88	–
285.15 K	220.37	–
286.15 K	221.11	–
287.15 K	221.79	–
288.15 K	222.53	–

Reference: the NIST ThermoML archive (doi:10.1016/j.jct.2017.08.004)
